Results reported in article PMC6385020 (Molecules, 2019).

What was measured:
[1] = system: ds26 (DNA, duplex) CAATCGGATCGAATTCGATCCGATTG; assay: G4-FID, thiazole orange displacement; settings: 100 mM KCl; 10 mM lithium cacodylate pH 7.3, 1% DMSO; thiazole orange displaced; 1 µM compound, 0.25 µM DNA
[2] = system: c-myc* (DNA, G4) TGAGGGTGGGTAGGGTGGGTAA; assay: denaturing gel electrophoresis, 3'-exonuclease digestion; settings: 100 mM KCl or KClO4; covalent; platination mainly A21/A22, also A12/G13; 18 h, 32 °C, 10 µM DNA
duplex ds26 DNA = assay: TO-PRO-3 G4-FID assay; format: binding; settings: ds26, K+100 buffer
Description: For the G4-FID assay, the oligonucleotides were dissolved in K^+100 buffer (10 mM lithium cacodylate buffer pH 7.3, 100 mM KCl, 1% DMSO). Oligonucleotide concentrations were determined on the basis of their absorbance at 260 nm. For the fluorimetric titration, the oligonucleotides were dissolved in K^+100 buffer without DMSO. For the FRET-melting assay, the oligonucleotides were dissolved in K^+1 buffer (10 mM lithium cacodylate buffer pH 7.3, 1 mM KCl, 99 mM LiCl) except for F-21-T. F-21-T was dissolved in K^+10 buffer (10 mM lithium cacodylate buffer pH 7.3, 10 mM KCl, 90 mM LiCl). […]
Each G4-FID assay was performed in a 96-well Non-Binding Surface black with black bottom polystyrene microplates (Corning). […] After 5 min of orbital shaking at 500 rpm, fluorescence is measured using the following experimental parameters: positioning delay of 0.5 s, 20 flashes per well, emission/excitation filters for TO at 485/520, TO-PRO-3 at 620/670, and PhenDV at 355/520 gain adjusted at 80% of the fluorescence from the most fluorescent well (i.e., a well from column A for TO and a well from column H).
The percentage of TO displacement is calculated from the fluorescence intensity (F), using (1) % TO displacement=1−F/F0 where F0 is the fluorescence from the fluorescent probe bound to DNA without added ligand. […]

22AG human telomeric G4 = assay: Platination of 22AG followed by denaturing gel electrophoresis; format: biochemical; settings: 0.2 µM 22AG, 1 µM complex, 25 to 95 °C gradient, K+10 buffer
Text: Since all these complexes (except for Pt(PA)-tpy) are susceptible to induce platination reactions, they can be exacerbated by a high temperature and by an increased number of nucleophilic sites which are exposed during unfolding (increased N7 G free sites); we wonder if such a reaction could occur during FRET-melting experiments and to what extent. Therefore, we followed the extent of platination reactions of c-myc and 22AG (same sequences as those used for FRET-melting but without fluorophore labeling) as a function of the melting temperature using ^32P-labelled oligonucleotides and denaturing gel electrophoresis (Figure 2).
The oligonucleotides were 5’-end-labelled using a polynucleotide kinase and (γ^32P)-ATP (Perkin Helmer). The reaction products were purified by electrophoresis on 20% denaturing gel. Sample platinations were prepared by folding a mixture of 5’-end-radiolabeled DNA and 10 µM or 100 µM of non-radiolabeled material in 100 mM KClO4 or 100 mM KCl solution except for the platination reaction in the denaturing temperature conditions. The folding was achieved by heating the samples at 90 °C for 5 min, followed by slow cooling to room temperature over the course of 2 h to induce the formation of the quadruplex structure. It was then incubated with platinum complexes, and platinated products were separated by electrophoresis on 15% denaturing gel. […]

[3] = system: 21CTA human telomeric sequence variant G4; format: binding; settings: PhenDV 1.5 eq, K+100 buffer
Description: For the G4-FID assay, the oligonucleotides were dissolved in K^+100 buffer (10 mM lithium cacodylate buffer pH 7.3, 100 mM KCl, 1% DMSO). Oligonucleotide concentrations were determined on the basis of their absorbance at 260 nm. For the fluorimetric titration, the oligonucleotides were dissolved in K^+100 buffer without DMSO. For the FRET-melting assay, the oligonucleotides were dissolved in K^+1 buffer (10 mM lithium cacodylate buffer pH 7.3, 1 mM KCl, 99 mM LiCl) except for F-21-T. F-21-T was dissolved in K^+10 buffer (10 mM lithium cacodylate buffer pH 7.3, 10 mM KCl, 90 mM LiCl).
Prior to use, all oligonucleotides were pretreated by heating at 95 °C for 5 min, then rapidly cooled to 4 °C to favor the intramolecular folding by kinetic trapping. Duplex-DNA ds26 was prepared by heating the self-complementary strand at 90 °C for 5 min in K^+1 buffer followed by a slow cooling over 6 h.
Each G4-FID assay was performed in a 96-well Non-Binding Surface black with black bottom polystyrene microplates (Corning). Every ligand was tested on a line of the microplate, in duplicate. The microplate was filled with (a) K^+100 solution (qs for 200 μL), (b) 10 μL of a solution of pre-folded oligonucleotides (5 μM) and fluorescent probe (TO/TO-PRO-3 (10 μM—2 eq) or PhenDV (7,5 µM—1.5 eq)), and (c) an extemporaneously prepared 5 μM ligand solution in K^+100 buffer (0 to 100 μL) along the line of the microplate, i.e., from column A to column H: 0, 0.125, 0.25, 0.375, 0.5, 0.625, 0.75, 1.0, 1.25, 1.5, 2.0, and 2.5 μM. After 5 min of orbital shaking at 500 rpm, fluorescence is measured using the following experimental parameters: positioning delay of 0.5 s, 20 flashes per well, emission/excitation filters for TO at 485/520, TO-PRO-3 at 620/670, and PhenDV at 355/520 gain adjusted at 80% of the fluorescence from the most fluorescent well (i.e., a well from column A for TO and a well from column H).
In the case of PhenDV, the fluorescence of the unbound probe is not negligible. The percentage of displacement becomes (2) % PhenDV Displacement=F−F0/Fligand+probe−F0
The PhenDV displacement is calculated from the fluorescence intensity F; F(ligand+probe), which refers to the fluorescence of the probe in presence of the ligand (without G4); and F0, which is the fluorescence without added ligand. The term F(ligand+probe) is necessary as the ligand can quench the fluorescence of the probe. The percentage of displacement is then plotted as a function of the concentration of the added ligand. The DNA affinity was evaluated by the concentration of ligand required to decrease the fluorescence of the probe by 50%, was noted DC50, and was determined after non-linear fitting of the displacement curve.

[4] = system: A2780 ovarian cancer cell line; assay: Cell growth (proliferation), 96 h treatment; format: cell-based, human; settings: A2780, 96 h treatment
Description: (§1) The ovarian carcinoma cell lines and human normal lung cells were purchased from ATCC and were grown in complete RPMI medium (ovarian) and DMEM (human lung cells) supplemented with 10% fetal calf serum, in the presence of penicillin, streptomycin. The resistance of A2780cis cells to cisplatin was maintained by monthly treatment with 1 µM cisplatin for 4 days. Concentrated stock solutions of complexes were conserved at −20 °C (DMSO/Water) and freshly diluted in water just before the experiments. Cells were treated with various concentrations of platinum complexes at 37 °C under humidity and 5% CO2 conditions for 96 h. Cellular growth was quantified using the particle counter MOXI (VWR).

[5] = system: CCD19Lu normal lung cell line; assay: Cell growth (proliferation), 96 h treatment; format: cell-based, human
Description: as §1

SMILES | % TO displacement [1] [%] | binding [2] | % of TOPRO3 displacement at 1 µM of ligand (duplex ds26 DNA) [%] | platination of 22AG during melting temperature experiments (22AG human telomeric G4) | % of PhenDV displacement at 1 µM of ligand [3] [%] | IC50 [4] [nM] | IC50 [5] [nM]
Cc1ccc(-c2cc(-c3ccccn3)nc(-c3ccccn3)c2)cc1.[Cl-].[Cl][Pt+] [Pt-ttpy] | < 20 | yes | 13 | clearly platinate | 90 | 2500 | 1750
[Cl-].[Cl][Pt+].c1ccc(-c2cc(-c3ccc(OCCN4CCCC4)cc3)nc(-c3ccccn3)n2)nc1 [Pt-cpym, Chloro-(2,4-di(pyridin-2-yl)-6-(4-(2-(pyrrolidin-1-yl)ethoxy)phenyl)pyrimidine)-platinum(II) Chloride] |  |  |  |  | 72 | 3800 | 1800
CN(C)CCCNCc1ccc(-c2cc(-c3ccccn3)nc(-c3ccccn3)c2)cc1.[Cl-].[Cl][Pt+] [Pt-ctpy] | < 20 |  | 24 |  | 100 | 4600 | 5200
[Cl-].[Cl][Pt+].c1ccc(-c2cccc(-c3ccccn3)n2)nc1 [Pt-tpy] |  |  |  | clearly platinate | 35 | 3000 | 3000
CN(C)c1ccc(/C=C/c2cc(-c3ccccn3)nc(-c3ccccn3)n2)cc1.[Cl-].[Cl][Pt+] [Pt-vpym, Chloro-(E)-4-(2-(2,6-di(pyridin-2-yl)pyrimidin-4-yl)vinyl)-N,N-dimethylaniline-platinum(II) Chloride] |  |  |  |  |  | 700 | 700
